Test [1] relates to upstream kinase JAK [上游激酶JAK]. The conditions noted are these: background statement; in words; cited from earlier work.
The target of test [2] is upstream kinase Src [上游激酶JAK或Src] (Homo sapiens, UniProt P12931). Particulars: background statement; in words; cited from earlier work.
The test system of test [3] is STAT3 phosphorylation [STAT3的磷酸化]. Particulars: background statement; in words; cited from earlier work.
Test [4] has as its system STAT1 phosphorylation [STAT1的磷酸化]. Particulars: background statement; in words; cited from earlier work.
Test [5] has as its system tumour cells [肿瘤细胞]. Particulars: background statement, in words; cited from earlier work.
Test [6] has as its system breast cancer cells MDA-MB-231 [乳腺癌细胞MDA-MB-231]. Put plainly: MTT antiproliferation assay, MDA-MB-231. It is filed as cell-based. Particulars: Homo sapiens, 48 h.
Test [7] relates to colon cancer cells HCT-116 [结肠癌细胞HCT-116]. Put plainly: MTT antiproliferation assay, HCT-116. Particulars: Homo sapiens, 48 h. It is filed as cell-based. For orientation: Tetrazolium dyes change colour on reduction, which living cells bring about.
Test [8] deals with non-small cell lung cancer cells A549 [非小细胞肺癌细胞A549]. Put plainly: MTT antiproliferation assay, A549. It is filed as cell-based. The conditions noted are these: Homo sapiens, 48 h.

Chain of upstream kinase Src [上游激酶JAK或Src] (P12931 whole entry): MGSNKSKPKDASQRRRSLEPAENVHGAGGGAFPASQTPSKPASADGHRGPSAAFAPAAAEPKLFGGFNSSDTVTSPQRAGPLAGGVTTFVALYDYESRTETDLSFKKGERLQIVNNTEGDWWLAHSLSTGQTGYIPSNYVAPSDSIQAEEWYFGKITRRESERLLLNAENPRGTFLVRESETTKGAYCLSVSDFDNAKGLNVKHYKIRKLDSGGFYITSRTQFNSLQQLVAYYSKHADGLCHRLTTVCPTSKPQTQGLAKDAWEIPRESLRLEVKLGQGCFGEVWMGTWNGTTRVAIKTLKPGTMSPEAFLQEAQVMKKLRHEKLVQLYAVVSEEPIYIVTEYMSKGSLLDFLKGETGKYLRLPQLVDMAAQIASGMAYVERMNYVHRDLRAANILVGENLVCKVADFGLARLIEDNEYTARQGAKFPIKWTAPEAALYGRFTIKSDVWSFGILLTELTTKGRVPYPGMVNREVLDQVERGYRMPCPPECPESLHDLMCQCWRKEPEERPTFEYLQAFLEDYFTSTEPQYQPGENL

As usually defined, the IC50 is the concentration that gives 50% inhibition. For `COc1ccc(S(=O)(=O)Nc2cc(-c3c(O)ccc4ccccc34)c(O)c3ccccc23)cc1` [C188-9], in test [1], the “inhibition of upstream kinase JAK” value is “无明显抑制作用”. Besides, the “inhibition of upstream kinase Src” value in test [2] is on record as “无明显抑制作用”. Besides, the “inhibition of STAT3 phosphorylation” value in test [3] is “能抑制STAT3的磷酸化”. Also, the “inhibition of STAT1 phosphorylation” value in test [4] was “有一定的抑制作用”. In addition, in test [5], the IC50 entry was “较高”.

Take `COc1ccc(S(=O)(=O)Nc2ccc(-c3ccc(C#N)c(F)c3)c3ccccc23)cc1` [VI 10]: the figures for the concentration for half-maximal inhibition (IC50) in test [6], in test [7] and in test [8] were 5.88 µM, 4.83 µM and 4.46 µM, respectively.

Source of the values: CN110698367A, “一种n-(1-取代萘基)-4-甲氧基苯磺酰胺类化合物及其制备和应用” (Wenzhou Medical University, priority 2019, dated 2020).
